Results published in patent US20180049996A1, “THERAPEUTIC AGENT FOR CHRONIC RESPIRATORY DISEASE AND COMPOSITION FOR INHIBITING CARDIAC FIBROSIS” (NIPPON HYPOX LABORATORIES INCORPORATED, priority 2015, published 2018).

Columns and labels:
[1] = test system: Creatine phosphokinase (CPK); experiment: Creatine phosphokinase (CPK) value in blood, myocardial disorder induced by doxorubicin; assay type: in vivo, female SD rats; details: Test group 2: doxorubicin + HTHQ 50 mg/kg; day 14; p<0.05
Method: Doxorubicin is used to produce disease-model animals of cardiomyopathy. The doxorubicin and 2,3,5-trimethylhydroquinone-1-hexyl ether (HTHQ) as the hydroquinone derivative represented by the general formula (1) described above of the present invention were simultaneously administered to female SD rats of 4 week old after birth to examine the effect of the action. The test groups consisted of the control group to which sterile saline was administered; test group 1 to which doxorubicin (13 mg/kg body weight) alone was administered; test group 2 to which doxorubicin (13 mg/kg body weight) and HTHQ (50 mg/kg body weight) were administered in combination; and test group 3 to which doxorubicin (13 mg/kg body weight), HTHQ (50 mg/kg body weight) and recombinant human erythropoietin (400 IU/kg body weight) were administered in combination. The recombinant human erythropoietin (rHuEPO) is mainly used in the treatment of renal anemia etc., and has the effect to protect myocardium. The test group 3 is used to confirm the presence or absence of the inhibitory effect brought about by combining HTHQ and rHuEPO on myocardial disorder.
Doxorubicin was orally administered in a single dose to the rats in test groups 1 to 3. […]

[2] = test system: allergic asthma model of mice caused by ovalbumin sensitization; experiment: BAL inflammatory cell numbers, allergic asthma model caused by ovalbumin sensitization; assay type: in vivo, BALB/c female mice; details: HTHQ 20 and 40 mg/kg/day oral, days 18 to 23; day 25; compared to OVA group
Method: The efficacy of the hydroquinone derivative represented by the general formula (1) described above of the present invention on asthma was studied using an allergic asthma model of mice caused by ovalbumin sensitization.
6 week old BALB/c female mice were purchased and the mice were divided into 5 groups with 5 animals per group shown in Table 3 below after habituation breeding of about 2 weeks.
The test was conducted on the schedule of sensitization, causing diseases and administration of test materials shown in FIG. 12. “IP” in FIG. 12 refers to ovalbumin sensitization treatment by the intraperitoneal administration of ovalbumin/aluminum hydroxide, and “IH” refers to inhalation exposure treatment of ovalbumin, and “PO” refers to the administration of the test materials. […]
All mice were euthanized by intraperitoneal injection of pentobarbital (Hanrimu pharmaceutical, South Korea) at 50 mg/kg and the bronchi were excised on day 25 of the test. […] After preparing slide samples from 100 μL of BAL cell fluid using Cytospin (4° C., 1000 rpm×5 min), the cell numbers of inflammatory cells (eosinophils, macrophages, lymphocytes and neutrophils) present in the BAL fluid were counted using a Diff-Quik stain kit.

In the case of `CCCCCCOc1cc(C)c(O)c(C)c1C` [HTHQ, 2,3,5-trimethylhydroquinone-1-hexyl ether], the “creatine phosphokinase (CPK) value” [1] was “significantly lower compared to that of test group 1” and the “inflammatory cell numbers in BAL fluid (eosinophils, macrophages, total)” value [2] was “significantly reduced in an HTHQ dose-dependent manner”.
